Assay results as given in the NIST ThermoML archive (doi:10.1016/j.fluid.2014.04.018).
Where “and” joins values, the source holds several entries; their conditions need not be identical. Equal entries are not always repeated.

Conditions: Liquid, Vibrating tube method

CCCCOC(=O)CCCCC(=O)OCCCC [dibutyl hexanedioate]
Conditions | mass density [kg/m3]
293.15 K, 100 kPa | 960.6
293.15 K, 2510 kPa | 962.2
293.15 K, 4990 kPa | 963.7
293.15 K, 5000 kPa | 963.7
293.15 K, 7510 kPa | 965.3
293.15 K, 9990 kPa | 966.9
293.15 K, 10000 kPa | 966.9
293.15 K, 15010 kPa | 969.9
293.15 K, 20000 kPa | 972.9
293.15 K, 29990 kPa | 978.6
293.15 K, 39800 kPa | 983.9
293.15 K, 39860 kPa | 983.8
293.15 K, 50020 kPa | 989.1
293.15 K, 68080 kPa | 997.3
293.15 K, 68090 kPa | 997.7
313.15 K, 100 kPa | 943.7
313.15 K, 2500 kPa | 945.4
313.15 K, 5020 kPa | 947.2
313.15 K, 7510 kPa | 948.9
313.15 K, 9990 kPa | 950.5
313.15 K, 15000 kPa | 953.9
313.15 K, 20000 kPa | 957.1
313.15 K, 30010 kPa | 963.3
313.15 K, 39810 kPa | 969
313.15 K, 50000 kPa | 974.6
313.15 K, 67990 kPa | 983.8
333.15 K, 100 kPa | 926.8
333.15 K, 2500 kPa | 928.7
333.15 K, 5010 kPa | 930.6
333.15 K, 7520 kPa | 932.5
333.15 K, 10010 kPa | 934.3
333.15 K, 15040 kPa | 938
333.15 K, 20000 kPa | 941.4
333.15 K, 30030 kPa | 948.2
333.15 K, 39800 kPa | 954.3
333.15 K, 50030 kPa | 960.4
333.15 K, 68030 kPa | 970.2
353.15 K, 100 kPa | 909.9
353.15 K, 2510 kPa | 912
353.15 K, 5000 kPa | 914.1
353.15 K, 7530 kPa | 916.2
353.15 K, 10010 kPa | 918.2
353.15 K, 15000 kPa | 922.2
353.15 K, 20000 kPa | 926
353.15 K, 30010 kPa | 933.3
353.15 K, 39840 kPa | 939.9
353.15 K, 49990 kPa | 946.4
353.15 K, 67990 kPa | 956.9
373.15 K, 100 kPa | 893
373.15 K, 2490 kPa | 895.3
373.15 K, 2500 kPa | 895.3
373.15 K, 5020 kPa | 897.6
373.15 K, 7510 kPa | 899.9
373.15 K, 10010 kPa | 902.1
373.15 K, 15010 kPa | 906.5
373.15 K, 19980 kPa | 910.6
373.15 K, 30010 kPa | 918.5
373.15 K, 39810 kPa | 925.7
373.15 K, 50000 kPa | 932.6
373.15 K, 68010 kPa | 943.8

CCCCC(CC)COC(=O)CCCCC(=O)OCC(CC)CCCC (stereo not given) [bis(2-ethylhexyl) adipate]
Conditions | mass density
293.15 K, 100 kPa | 925.4 kg/m3
293.15 K, 2510 kPa | 926.9 kg/m3
293.15 K, 5000 kPa | 928.4 kg/m3 and 928.3 kg/m3
293.15 K, 5010 kPa | 928.4 kg/m3
293.15 K, 7550 kPa | 929.9 kg/m3
293.15 K, 10010 kPa | 931.3 kg/m3
293.15 K, 10020 kPa | 931.3 kg/m3
293.15 K, 15040 kPa | 934.2 kg/m3
293.15 K, 20020 kPa | 937 kg/m3
293.15 K, 30030 kPa | 942.4 kg/m3
293.15 K, 40010 kPa | 947.4 kg/m3
293.15 K, 40020 kPa | 947.4 kg/m3
293.15 K, 50020 kPa | 952.3 kg/m3
293.15 K, 68030 kPa | 960.4 kg/m3 and 960.3 kg/m3
313.15 K, 100 kPa | 910.3 kg/m3
313.15 K, 2530 kPa | 911.9 kg/m3
313.15 K, 2540 kPa | 911.9 kg/m3
313.15 K, 5020 kPa | 913.5 kg/m3
313.15 K, 7540 kPa | 915.2 kg/m3
313.15 K, 10010 kPa | 916.7 kg/m3
313.15 K, 15010 kPa | 919.8 kg/m3
313.15 K, 20000 kPa | 922.8 kg/m3
313.15 K, 30030 kPa | 928.7 kg/m3
313.15 K, 40020 kPa | 934.1 kg/m3
313.15 K, 50010 kPa | 939.3 kg/m3
313.15 K, 68050 kPa | 947.9 kg/m3
333.15 K, 100 kPa | 895.3 kg/m3
333.15 K, 2500 kPa | 897.1 kg/m3
333.15 K, 5000 kPa | 898.8 kg/m3
333.15 K, 7480 kPa | 900.6 kg/m3
333.15 K, 9990 kPa | 902.3 kg/m3
333.15 K, 14990 kPa | 905.7 kg/m3
333.15 K, 19970 kPa | 908.9 kg/m3
333.15 K, 30010 kPa | 915.2 kg/m3
333.15 K, 39990 kPa | 921 kg/m3
333.15 K, 50020 kPa | 926.6 kg/m3
333.15 K, 68010 kPa | 935.8 kg/m3
353.15 K, 100 kPa | 880.4 kg/m3
353.15 K, 2500 kPa | 882.3 kg/m3
353.15 K, 2510 kPa | 882.3 kg/m3
353.15 K, 5000 kPa | 884.2 kg/m3
353.15 K, 7510 kPa | 886.1 kg/m3
353.15 K, 10000 kPa | 888 kg/m3
353.15 K, 15010 kPa | 891.7 kg/m3
353.15 K, 20020 kPa | 895.2 kg/m3
353.15 K, 30030 kPa | 902 kg/m3
353.15 K, 40020 kPa | 908.2 kg/m3
353.15 K, 50010 kPa | 914.1 kg/m3
353.15 K, 68010 kPa | 923.9 kg/m3
373.15 K, 100 kPa | 865.4 kg/m3
373.15 K, 2510 kPa | 867.5 kg/m3
373.15 K, 5020 kPa | 869.7 kg/m3
373.15 K, 7510 kPa | 871.7 kg/m3
373.15 K, 10010 kPa | 873.8 kg/m3
373.15 K, 14990 kPa | 877.8 kg/m3
373.15 K, 20000 kPa | 881.6 kg/m3
373.15 K, 30010 kPa | 888.9 kg/m3
373.15 K, 40000 kPa | 895.6 kg/m3
373.15 K, 50010 kPa | 901.9 kg/m3
373.15 K, 68000 kPa | 912.3 kg/m3
